Results as given in ChEMBL document CHEMBL1146993, “Synthesis and structure-activity relationships of novel dipeptides and reduced dipeptides as ligands for melanocortin subtype-4 receptor” (Bioorg Med Chem Lett, 2006).

What was measured:
Type in all cases: cell-based
Melanocortin receptor 4 = Melanocortin receptor 4 (Homo sapiens, UniProt P32245); experiment: Displacement of [125I]NDP-alpha-MSH from cloned human MC4R expressed in HEK293 cells
[1] = biological target: Melanocyte-stimulating hormone receptor (Homo sapiens, UniProt Q01726); experiment: Displacement of [125I]NDP-alpha-MSH from cloned human MC1R expressed in HEK293 cell
Melanocyte-stimulating hormone receptor, sequence (Q01726 whole entry): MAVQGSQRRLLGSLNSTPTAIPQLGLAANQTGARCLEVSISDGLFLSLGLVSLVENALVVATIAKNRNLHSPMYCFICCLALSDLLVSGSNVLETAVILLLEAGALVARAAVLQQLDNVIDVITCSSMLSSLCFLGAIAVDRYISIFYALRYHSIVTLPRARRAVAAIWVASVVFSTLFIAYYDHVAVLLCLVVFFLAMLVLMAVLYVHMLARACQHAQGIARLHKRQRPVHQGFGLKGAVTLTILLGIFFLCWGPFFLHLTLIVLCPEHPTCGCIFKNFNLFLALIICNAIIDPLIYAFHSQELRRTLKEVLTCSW

Melanocortin receptor 5 = Melanocortin receptor 5 (Homo sapiens, UniProt P33032); experiment: Displacement of [125I]NDP-alpha-MSH from cloned human MC5R expressed in HEK293 cell
Melanocortin receptor 5, sequence (P33032 whole entry): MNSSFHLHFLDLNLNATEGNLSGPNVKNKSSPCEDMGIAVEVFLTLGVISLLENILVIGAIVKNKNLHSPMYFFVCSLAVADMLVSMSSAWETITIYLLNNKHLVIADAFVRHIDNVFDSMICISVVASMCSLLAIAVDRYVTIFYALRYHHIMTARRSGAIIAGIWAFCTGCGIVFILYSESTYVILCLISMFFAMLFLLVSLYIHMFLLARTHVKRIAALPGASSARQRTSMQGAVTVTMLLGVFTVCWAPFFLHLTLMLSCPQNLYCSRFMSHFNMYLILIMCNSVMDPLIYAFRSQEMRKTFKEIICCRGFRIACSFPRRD

Melanocortin receptor 3 = Melanocortin receptor 3 (Homo sapiens, UniProt P41968); experiment: Displacement of [125I]NDP-alpha-MSH from cloned human MC3R expressed in HEK293 cell
Melanocortin receptor 3, sequence (P41968 whole entry): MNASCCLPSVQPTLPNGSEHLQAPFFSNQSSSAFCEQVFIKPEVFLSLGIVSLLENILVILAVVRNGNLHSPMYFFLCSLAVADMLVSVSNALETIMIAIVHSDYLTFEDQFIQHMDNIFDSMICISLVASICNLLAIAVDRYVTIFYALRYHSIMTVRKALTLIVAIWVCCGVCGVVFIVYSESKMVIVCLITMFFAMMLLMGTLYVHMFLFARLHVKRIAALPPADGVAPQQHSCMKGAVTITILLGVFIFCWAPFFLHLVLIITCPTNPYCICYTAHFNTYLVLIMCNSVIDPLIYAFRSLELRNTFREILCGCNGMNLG

Melanocortin receptor 4, sequence (P32245 whole entry): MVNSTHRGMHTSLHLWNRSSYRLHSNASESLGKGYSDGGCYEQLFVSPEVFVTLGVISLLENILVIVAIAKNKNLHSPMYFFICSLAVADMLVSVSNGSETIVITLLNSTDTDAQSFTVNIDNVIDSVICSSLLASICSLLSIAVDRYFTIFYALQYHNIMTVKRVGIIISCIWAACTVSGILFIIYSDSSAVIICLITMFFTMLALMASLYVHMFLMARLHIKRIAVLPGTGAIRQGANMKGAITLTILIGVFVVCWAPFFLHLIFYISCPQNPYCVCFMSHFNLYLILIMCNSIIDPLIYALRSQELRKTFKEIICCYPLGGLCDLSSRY

SMILES | Ki (Melanocortin receptor 4) [µM] | Ki [1] [µM] | Ki (Melanocortin receptor 5) [µM] | Ki (Melanocortin receptor 3) [µM]
CCN(CC)CC(c1ccccc1Cl)N1CCN(C(=O)[C@@H](Cc2ccc(Cl)cc2)NC(=O)CC2NCc3ccccc32)CC1 (stereo in doubt; 41a) | 0.107 |  |  | 
CCN(CC)CC(c1ccccc1F)N1CCN(C(=O)[C@@H](Cc2ccc(Cl)cc2)NC(=O)CC2NCc3ccccc32)CC1 (some centres undefined) | 0.0073 | 6 | 1.2 | 3.4
CCN(CC)CC(c1ccccc1Cl)N1CCN(C(=O)[C@@H](Cc2ccc(Cl)cc2)NC(=O)CC2NCc3ccccc32)CC1 (stereo in doubt; 41b) | 0.0053 |  |  | 
CCN(CC)CC(c1ccccc1F)N1CCN(C(=O)[C@@H](Cc2ccc(Cl)cc2)NC(=O)[C@H]2Cc3ccccc3CN2)CC1 (some centres undefined) | 0.0406 | 5.8 | 0.95 | 7
CCN(CC)CC(c1ccccc1Cl)N1CCN(C(=O)[C@@H](Cc2ccc(Cl)cc2)NC(=O)CC2NCCc3ccccc32)CC1 (stereo in doubt; 43) | 0.0064 |  |  | 
CCN(CC)CC(c1ccccc1F)N1CCN(C(=O)[C@@H](Cc2ccc(Cl)cc2)NC(=O)CC2c3ccccc3CN2C)CC1 (some centres undefined) | 0.0173 | 8.6 | 2 | 4.6
CCN(CC)CC(c1ccccc1Cl)N1CCN(C(=O)[C@@H](Cc2ccc(Cl)cc2)NC(=O)CC2NCCc3ccccc32)CC1 (stereo in doubt; 42) | 0.0302 |  |  | 
CCN(CC)CC(c1ccccc1F)N1CCN(C(=O)[C@@H](Cc2ccc(Cl)cc2)NC(=O)c2cc3ccccc3cn2)CC1 (some centres undefined) | 0.0956 | 7 | 0.92 | 1.4
CCN(CC)CC(c1ccccc1F)N1CCN(C(=O)[C@@H](Cc2ccc(Cl)cc2)NC(=O)CC2NCCc3ccccc32)CC1 (some centres undefined) | 0.0104 | 3 | 0.91 | 4.2
CCN(CC)CC(c1ccccc1Cl)N1CCN(C(=O)[C@@H](Cc2ccc(Cl)cc2)NC(=O)CC2NCc3ccccc32)CC1 (stereo in doubt; 40b) | 0.0181 |  |  | 
CCN(CC)CC(c1ccccc1F)N1CCN(C(=O)[C@@H](Cc2ccc(Cl)cc2)NC(=O)C2Cc3ccccc3C(C)(C)N2)CC1 (some centres undefined) | 0.0058 | 7 | 0.42 | 1.9
CCN(CC)CC(c1ccccc1Cl)N1CCN(C(=O)[C@@H](Cc2ccc(Cl)cc2)NC(=O)CC2NCc3ccccc32)CC1 (stereo in doubt; 40a) | 0.178 |  |  | 
CCN(CC)CC(c1ccccc1F)N1CCN(C(=O)[C@@H](Cc2ccc(Cl)cc2)NC(=O)CC2(C)NCc3ccccc32)CC1 (some centres undefined) | 0.0737 | 20 | 1.4 | 16
